Results: patent US20120029187A1, “HALOALKYLSULFONANILIDE DERIVATIVE” (Nissan Chemical Industries, Ltd., priority 2009, published 2012)

Columns and labels:
Type in all cases: in vivo
transplanted rice = assay: Test Example 1: preemergence treatment under submerged conditions, effect on crop; conditions: dose 2.52 g/a
Summary of the method: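 Alluvial soil was flooded to 4 cm, sown with barnyardgrass, bulrush and ducksalad, and planted with 2.5-leaf rice seedlings. On the seeding day, water-diluted emulsifiable concentrates were applied to the water surface at set doses (g/a). After three weeks in a 25 to 30° C. greenhouse, mortality was scored 0–5.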

water foxtail = assay: Test Example 3: herbicidal effects in soil treatment; conditions: dose 6.3 g/a
Summary of the method: (§1)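 Seeds were sown in sterilized diluvial soil and covered with about 1.5 cm of soil. Compounds, formulated as emulsifiable concentrates and diluted with water, were sprayed evenly over the soil surface at set doses in g/a. Herbicidal effect was scored on a rating scale three weeks later.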

common lambsquater = assay: as above; conditions: dose 6.3 g/a
Summary of the method: as §1

barnyardgrass = assay: as above; conditions: dose 6.3 g/a
Summary of the method: as §1

posumbu knotweed = assay: as above; conditions: dose 6.3 g/a
Summary of the method: as §1

common chickweed = assay: as above; conditions: dose 6.3 g/a
Summary of the method: as §1

large crabgrass = assay: as above; conditions: dose 6.3 g/a
Summary of the method: as §1

common ragweed = assay: as above; conditions: dose 6.3 g/a
Summary of the method: as §1

velvetleaf = assay: as above; conditions: dose 6.3 g/a
Summary of the method: as §1

wild oat = assay: as above; conditions: dose 6.3 g/a
Summary of the method: as §1

giant foxtail = assay: as above; conditions: dose 6.3 g/a
Summary of the method: as §1

Italian ryegrass = assay: as above; conditions: dose 6.3 g/a
Summary of the method: as §1

## CC(C)COC(=O)N(c1ccccc1CN1COCCC1=O)S(=O)(=O)C(F)(F)F [II-3]
Transplanted rice
  a: transplanted rice, effect on crop (evaluation scale 0-5): 0 (mortality of less than 5% (almost ineffective))
Water foxtail
  G: water foxtail, herbicidal effect (evaluation scale 0-5): 5 (mortality of 90% or above (nearly complete death))
Common lambsquater
  L: common lambsquater, herbicidal effect (evaluation scale 0-5): 1 (mortality of at least 5% and less than 20%)
barnyardgrass
  A: barnyardgrass, herbicidal effect (evaluation scale 0-5): 5 (mortality of 90% or above (nearly complete death))
Posumbu knotweed
  M: posumbu knotweed, herbicidal effect (evaluation scale 0-5): 1 (mortality of at least 5% and less than 20%)
Common chickweed
  N: common chickweed, herbicidal effect (evaluation scale 0-5): 3 (mortality of at least 40% and less than 70%)
Large crabgrass
  D: large crabgrass, herbicidal effect (evaluation scale 0-5): 5 (mortality of 90% or above (nearly complete death))
Common ragweed
  J: common ragweed, herbicidal effect (evaluation scale 0-5): 3 (mortality of at least 40% and less than 70%)
velvetleaf
  I: velvetleaf, herbicidal effect (evaluation scale 0-5): 4 (mortality of at least 70% and less than 90%)
Wild oat
  F: wild oat, herbicidal effect (evaluation scale 0-5): 0 (mortality of less than 5% (almost ineffective))
Giant foxtail
  E: giant foxtail, herbicidal effect (evaluation scale 0-5): 3 (mortality of at least 40% and less than 70%)
Italian ryegrass
  H: Italian ryegrass, herbicidal effect (evaluation scale 0-5): 4 (mortality of at least 70% and less than 90%)
